Patent US20260042731A1, “(2,4-DICHLOROPHENOXY)ACETIC ACID ANALOGS” (CORTEVA AGRISCIENCE LLC, priority 2022, published 2026)
Like-named read-outs stand apart in the source and are kept apart here.

How the values were obtained:
[1] = Volatility of compounds measured by thermogravimetric analysis (TGA); format: physicochemical
[2] = tested on: ABUTH, AMATA, AMBEL, CHEAL, ERICA weeds; test: Postemergence herbicide evaluation, overall average % weed control across ABUTH, AMATA, AMBEL, CHEAL, ERICA; format: in vivo
Description: For example, the pesticidal activity may include herbicidal activity.

[3] = tested on: Chenopodium album (CHEAL), common lambsquarters; test: Postemergence herbicide evaluation, growth of Chenopodium album (CHEAL); format: in vivo; details: Chenopodium album, post-emergence, read-out: Ave. CHEAL, percent reduction in plant size relative to the untreated control; for pest or weed control at 280 g/ha: 280 g ae/ha; for pest or weed control at 560 g/ha: 560 g ae/ha
[4] = tested on: Glycine max (Enlist E3 traited soybeans, GLXMA); details: Enlist E3 soybeans
[5] = tested on: weeds ABUTH, AMATA, AMBEL, CHEAL, ERICA; test: Postemergence herbicide evaluation, overall average % weed control (ABUTH, AMATA, AMBEL, CHEAL, ERICA); format: in vivo; details: post-emergence, read-out: Overall Ave % Weed Control; for pest or weed control at 280 g/ha: 280 g ae/ha; for pest or weed control at 560 g/ha: 560 g ae/ha
[6] = tested on: Amaranthus rudis (AMATA), tall water hemp; test: Postemergence herbicide evaluation, growth of Amaranthus rudis (AMATA); format: in vivo; details: Amaranthus tuberculatus, post-emergence, read-out: Ave. AMATA, percent reduction in plant size relative to the untreated control; for pest or weed control at 280 g/ha: 280 g ae/ha; for pest or weed control at 560 g/ha: 560 g ae/ha
[7] = tested on: Abutilon theophrasti (ABUTH), velvetleaf; test: Postemergence herbicide evaluation, growth of Abutilon theophrasti (ABUTH); format: in vivo; details: Abutilon theophrasti, post-emergence, read-out: AVE. ABUTH, percent reduction in plant size relative to the untreated control; for pest or weed control at 280 g/ha: 280 g ae/ha; for pest or weed control at 560 g/ha: 560 g ae/ha
[8] = tested on: Ambrosia artemisiifolia (AMBEL), common ragweed; test: Postemergence herbicide evaluation, growth of Ambrosia artemisiifolia (AMBEL); format: in vivo; details: Ambrosia artemisiifolia, post-emergence, read-out: AVE. AMBEL, percent reduction in plant size relative to the untreated control; for pest or weed control at 280 g/ha: 280 g ae/ha; for pest or weed control at 560 g/ha: 560 g ae/ha
[9] = tested on: glyphosate resistant Conyza canadensis (L.) (ERICA), horseweed; test: Postemergence herbicide evaluation, growth of Conyza canadensis (ERICA); format: in vivo; details: Erigeron canadensis, post-emergence, read-out: Ave. ERICA, percent reduction in plant size relative to the untreated control; for pest or weed control at 280 g/ha: 280 g ae/ha; for pest or weed control at 560 g/ha: 560 g ae/ha

In the case of `CN(NC(=O)COc1ccc(Cl)cc1Cl)c1ccccc1` [Compound D11, 2-(2,4-Dichlorophenoxy)-N′-methyl-N′-phenylacetohydrazide], the “TGA Data (rate of weight loss, volatility)” value [1] was 0.06 µg/min, the “Overall Ave % Weed Control” value ([2]; 280 g ae/ha, 7 DAA) was 63% and the “Overall Ave % Weed Control” value ([2]; 280 g ae/ha, 14 DAA) was 76%. For the same molecule, the “Overall Ave % Weed Control” value ([2]; 280 g ae/ha, 21 DAA) was 80%, the “Overall Ave % Weed Control” value ([2]; 560 g ae/ha, 7 DAA) was 69% and the “Overall Ave % Weed Control” value ([2]; 560 g ae/ha, 14 DAA) was 82%. For the same molecule, the “Overall Ave % Weed Control” value ([2]; 560 g ae/ha, 21 DAA) was 89%.
In the case of `C[N+](C)(C)CCOC(=O)COc1ccc(Cl)cc1Cl.[Cl-]` [Compound E3, 2-(2-(2,4-Dichlorophenoxy)acetoxy)-N, N, N-trimethylethanaminium chloride], the pest or weed control at 280 g/ha ([3]; 168 h, 7 DAA) was 68%, the pest or weed control at 560 g/ha ([3]; 168 h, 7 DAA) was 70% and the pest or weed control at 280 g/ha ([3]; 336 h, 14 DAA) was 78%. It also gave a pest or weed control at 560 g/ha ([3]; 336 h, 14 DAA) of 73%, a pest or weed control at 280 g/ha ([3]; 504 h, 21 DAA) of 80% and a pest or weed control at 560 g/ha ([3]; 504 h, 21 DAA) of 77%. For the same molecule, the “TGA Data (rate of weight loss, volatility)” value [1] was 2.4 µg/min, the “AVE. GLXMA, percent reduction in plant size relative to the untreated control” value ([4]; 280 g ae/ha, 7 DAA) was 0% and the “AVE. GLXMA, percent reduction in plant size relative to the untreated control” value ([4]; 280 g ae/ha, 14 DAA) was 0%. The “AVE. GLXMA, percent reduction in plant size relative to the untreated control” value ([4]; 280 g ae/ha, 21 DAA) was 3%, the “AVE. GLXMA, percent reduction in plant size relative to the untreated control” value ([4]; 560 g ae/ha, 7 DAA) was 0% and the “AVE. GLXMA, percent reduction in plant size relative to the untreated control” value ([4]; 560 g ae/ha, 14 DAA) was 0%. For the same molecule, the “AVE. GLXMA, percent reduction in plant size relative to the untreated control” value ([4]; 560 g ae/ha, 21 DAA) was 0%, the pest or weed control at 280 g/ha ([5]; 168 h, 7 DAA) was 71% and the pest or weed control at 560 g/ha ([5]; 168 h, 7 DAA) was 77%. The pest or weed control at 280 g/ha ([5]; 336 h, 14 DAA) was 81%, the pest or weed control at 560 g/ha ([5]; 336 h, 14 DAA) was 86% and the pest or weed control at 280 g/ha ([5]; 504 h, 21 DAA) was 86%. The pest or weed control at 560 g/ha ([5]; 504 h, 21 DAA) was 89%, the pest or weed control at 280 g/ha ([6]; 168 h, 7 DAA) was 78% and the pest or weed control at 560 g/ha ([6]; 168 h, 7 DAA) was 78%. For the same molecule, the pest or weed control at 280 g/ha ([6]; 336 h, 14 DAA) was 78%, the pest or weed control at 560 g/ha ([6]; 336 h, 14 DAA) was 85% and the pest or weed control at 280 g/ha ([6]; 504 h, 21 DAA) was 75%. The pest or weed control at 560 g/ha ([6]; 504 h, 21 DAA) was 83%, the pest or weed control at 280 g/ha ([7]; 168 h, 7 DAA) was 75% and the pest or weed control at 560 g/ha ([7]; 168 h, 7 DAA) was 83%. It also gave a pest or weed control at 280 g/ha ([7]; 336 h, 14 DAA) of 78%, a pest or weed control at 560 g/ha ([7]; 336 h, 14 DAA) of 93% and a pest or weed control at 280 g/ha ([7]; 504 h, 21 DAA) of 86%. The pest or weed control at 560 g/ha ([7]; 504 h, 21 DAA) was 97%, the pest or weed control at 280 g/ha ([8]; 168 h, 7 DAA) was 63% and the pest or weed control at 560 g/ha ([8]; 168 h, 7 DAA) was 75%. For the same molecule, the pest or weed control at 280 g/ha ([8]; 336 h, 14 DAA) was 89%, the pest or weed control at 560 g/ha ([8]; 336 h, 14 DAA) was 93% and the pest or weed control at 280 g/ha ([8]; 504 h, 21 DAA) was 95%. It also gave a pest or weed control at 560 g/ha ([8]; 504 h, 21 DAA) of 98%, a pest or weed control at 280 g/ha ([9]; 168 h, 7 DAA) of 73% and a pest or weed control at 560 g/ha ([9]; 168 h, 7 DAA) of 78%. It also gave a pest or weed control at 280 g/ha ([9]; 336 h, 14 DAA) of 83%, a pest or weed control at 560 g/ha ([9]; 336 h, 14 DAA) of 88% and a pest or weed control at 280 g/ha ([9]; 504 h, 21 DAA) of 95%. It also gave a pest or weed control at 560 g/ha ([9]; 504 h, 21 DAA) of 93%.
